Laboratory results as given in patent US20240101570A1 (AMGEN INC., priority 2020, published 2024).
Like-named read-outs stand apart in the source and are kept apart here.

How the values were obtained:
HCT116 WT cells = experiment: HCT116 WT cell proliferation / viability (CellTiter-Glo, 6 days); format: cell-based; conditions: HCT116 WT cells, 6 days, CellTiter-Glo, read-out: HCT-116 WT IC50
Outline: (§1)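 IC50 values derive from sigmoidal dose-response fits, some with Hill slope fixed at −1 and top constrained to 100%, others from 4-parameter logistic models. They reflect CellTiter-Glo viability after 6 days of compound exposure at up to 10 or 50 μM.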

HCT116 MTAP null cells = experiment: HCT116 MTAP null cell proliferation / viability (CellTiter-Glo, 6 days); format: cell-based; conditions: for IC50: HCT116 MTAP null cells, 6 days, CellTiter-Glo, read-out: HCT-116 MTAP null IC50; for potency of enantiomer relative to the other enantiomer, measured by IC50 in HCT116 MTAP null cell viability assay: comparison of the two SFC-separated enantiomers
Outline: as §1

IC50 (HCT116 WT cells; Homo sapiens, HCT-116, 144 h) [nM]	IC50 (HCT116 MTAP null cells; HCT116-MTAP null, 144 h) [nM]	potency of enantiomer relative to the other enantiomer, measured by IC50 in HCT116 MTAP null cell viability assay (HCT116 MTAP null cells)	IC50 (HCT116 WT cells) [nM]	IC50 (HCT116 MTAP null cells) [nM]	SMILES
4930	338	less potent			C[C@@H](CF)N(Cc1ccc(C#N)cn1)C(=O)c1ccc2nc(N)c3c(c2c1)COC3 (single isomer, unassigned) [Example 578]
5620	348				CC(C)CN(Cc1ccc(C(F)(F)F)cn1)C(=O)c1ccc2nc(N)c3c(c2c1)CO[C@H]3CO (single isomer, unassigned) [Example 579]
10800	321				CC(C)CN(Cc1ccc(C(F)(F)F)cn1)C(=O)c1ccc2nc(N)c3c(c2c1)CO[C@@H]3CO (single isomer, unassigned) [Example 580]
10200	809				N#CC[C@H](C1CC1)N(Cc1ccc(C#N)cn1)C(=O)c1ccc2nc(N)c3c(c2c1)COC3 (single isomer, unassigned) [Example 581]
558	36				N#CC[C@@H](C1CC1)N(Cc1ccc(C#N)cn1)C(=O)c1ccc2nc(N)c3c(c2c1)COC3 (single isomer, unassigned) [Example 582]
			4820	173	CO[C@@H]1CCOC[C@H]1N(Cc1ccc(C#N)c(C)n1)C(=O)c1ccc2nc(N)c3c(c2c1)COC3 (single isomer, unassigned) [Example 583]
164	14				CO[C@@H]1COCC[C@H]1N(Cc1ccc(C(F)(F)F)cn1)C(=O)c1ccc2nc(N)c3c(c2c1)COC3 (single isomer, unassigned) [Example 584]
150	12				CO[C@@H]1CCOC[C@H]1N(Cc1ccc(C(F)(F)F)cn1)C(=O)c1ccc2nc(N)c3c(c2c1)COC3 (single isomer, unassigned) [Example 586]
1710	76				CO[C@H]1CCOC[C@@H]1N(Cc1ccc(C(F)(F)F)cn1)C(=O)c1ccc2nc(N)c3c(c2c1)COC3 (single isomer, unassigned) [Example 587]
			1950	79	CO[C@@H]1CCOC[C@H]1N(Cc1ccc(C#N)c(C)n1)C(=O)c1ccc2nc(N)c3c(c2c1)COC3 (single isomer, unassigned) [Example 588]
815	29				C[C@H](c1ccc(C(F)(F)F)cn1)N(C(=O)c1cc2c3c(c(N)nc2cn1)[C@@H](C)OC3)C1CC1 (single isomer, unassigned) [Example 589]
> 50000	2230				C[C@@H]1OCc2c1c(N)nc1cnc(C(=O)N(C3CC3)[C@H](C)c3ccc(C(F)(F)F)cn3)cc21 (single isomer, unassigned) [Example 590]
32100	563				Cc1cc2nc(N)c3cnn(C)c3c2cc1C(=O)N(C)[C@@H](C)c1ccc(F)cn1 (single isomer, unassigned) [Example 591]
2410	25				Cc1cc2nc(N)c3cnn(C)c3c2cc1C(=O)N(C)[C@H](C)c1ccc(F)cn1 (single isomer, unassigned) [Example 592]
29100	638				C[C@@H](c1ccc(F)cn1)N(C)C(=O)c1cc2c(cc1Cl)nc(N)c1cnn(C)c12 (single isomer, unassigned) [Example 594]
676	10				C[C@H](c1ncc(C(F)(F)F)cc1F)N(C)C(=O)c1cc2c3c(c(N)nc2cc1F)COC3 (single isomer, unassigned) [Example 595]
37300	888				CCN(Cc1ccc(C(F)(F)F)cn1)C(=O)c1ccc2nc(N)c3c(c2c1)CO[C@H]3CF (single isomer, unassigned) [Example 596]
15200	200				C[C@H]1OCc2c1c(N)nc1cnc(C(=O)N(C)Cc3ccc(Br)cn3)cc21 (single isomer, unassigned) [Example 597]
415	8				C[C@H](c1ccc(C(F)(F)F)cc1)N(C)C(=O)c1cc2c(cn1)nc(N)c1cnn(C)c12 (single isomer, unassigned) [Example 598]
27200	536				C[C@@H](c1ccc(C(F)(F)F)cc1)N(C)C(=O)c1cc2c(cn1)nc(N)c1cnn(C)c12 (single isomer, unassigned) [Example 599]
663	18				C[C@H](c1ccc(C(F)(F)F)cn1)N(C)C(=O)c1ccc2nc(N)c3cnn(C)c3c2c1 (single isomer, unassigned) [Example 600]
21200	997				C[C@@H](c1ccc(C(F)(F)F)cn1)N(C)C(=O)c1ccc2nc(N)c3cnn(C)c3c2c1 (single isomer, unassigned) [Example 601]
209	6				C[C@H](c1ccc(C(F)(F)F)cn1)N(C)C(=O)c1cc2c(cc1F)nc(N)c1cnn(C)c12 (single isomer, unassigned) [Example 602]

IC50 (HCT116 WT cells; Homo sapiens, HCT-116, 144 h) [nM]	IC50 (HCT116 MTAP null cells; HCT116-MTAP null, 144 h) [nM]	potency of enantiomer relative to the other enantiomer, measured by IC50 in HCT116 MTAP null cell viability assay (HCT116 MTAP null cells)	IC50 (HCT116 WT cells) [nM]	IC50 (HCT116 MTAP null cells) [nM]	SMILES
11800	276				C[C@@H](c1ccc(C(F)(F)F)cn1)N(C)C(=O)c1cc2c(cc1F)nc(N)c1cnn(C)c12 (single isomer, unassigned) [Example 603]
24600	238				C[C@H](c1ccc(F)cn1)N(C)C(=O)c1ccc2nc(N)c3cnn(C)c3c2c1 (single isomer, unassigned) [Example 604]
793	14				C[C@H](c1ccc(C(F)(F)F)nn1)N(C)C(=O)c1cc2c(cc1F)nc(N)c1cnn(C)c12 (single isomer, unassigned) [Example 605]
263	19	more potent			COc1ccc(CN(C(=O)c2ccc3nc(N)c4c(c3c2)CCC4)[C@H](C)c2ncccn2)nn1 (single isomer, unassigned) [Example 646]
4200	673	less potent			COc1ccc(CN(C(=O)c2ccc3nc(N)c4c(c3c2)CCC4)[C@@H](C)c2ncccn2)nn1 (single isomer, unassigned) [Example 647]
2500	279				C[C@@H](c1ncccn1)N(Cc1ccc(C(F)(F)F)nn1)C(=O)c1ccc2nc(N)c3c(c2c1)CCC3 (single isomer, unassigned) [Example 648]
181	14				C[C@H](c1ncccn1)N(Cc1ccc(C(F)(F)F)nn1)C(=O)c1ccc2nc(N)c3c(c2c1)CCC3 (single isomer, unassigned) [Example 649]
811	53				COC[C@H](C1CC1)N(Cc1ccc(Br)nn1)C(=O)c1ccc2nc(N)c3sccc3c2c1 (single isomer, unassigned) [Example 650]
3520	234				COC[C@H](C1CC1)N(Cc1ccc(Br)nn1)C(=O)c1cnc2nc(N)c3c(c2c1)COC3 (single isomer, unassigned) [Example 651]
> 10000	7070				C[C@H](CF)N(Cc1ccc(C#N)cn1)C(=O)c1cc2c3c(c(N)nc2cn1)COC3 (single isomer, unassigned) [Example 820]
> 50000	4190				CCN(C(=O)c1ccc2nc(N)c3c(c2c1)COC3)[C@@H](C)c1ccc(C(F)(F)F)cn1 (single isomer, unassigned) [Example 821]
12000	323				CCN(C(=O)c1ccc2nc(N)c3c(c2c1)COC3)[C@H](C)c1ccc(C(F)(F)F)cn1 (single isomer, unassigned) [Example 822]
16200	528				CCN(C(=O)c1cc2c3c(c(N)nc2cn1)COC3)[C@H](C)c1ccc(C(F)(F)F)cn1 (single isomer, unassigned) [Example 823]
26300	2390				CCN(C(=O)c1cc2c3c(c(N)nc2cn1)COC3)[C@@H](C)c1ccc(C(F)(F)F)cn1 (single isomer, unassigned) [Example 824]
276	22				C[C@H](c1ccc(C(F)(F)F)cn1)N(C(=O)c1cc2c3c(c(N)nc2cn1)COC3)c1cnn(C)c1 (single isomer, unassigned) [Example 825]
27100	6720				C[C@@H](c1ccc(C(F)(F)F)cn1)N(C(=O)c1cc2c3c(c(N)nc2cn1)COC3)c1cnn(C)c1 (single isomer, unassigned) [Example 826]
47200	1250				C[C@@H]1OCc2c1c(N)nc1cnc(C(=O)N(Cc3ccc(C(F)(F)F)cn3)c3cnn(C)c3)cc21 (single isomer, unassigned) [Example 827]
294	26				C[C@H]1OCc2c1c(N)nc1cnc(C(=O)N(Cc3ccc(C(F)(F)F)cn3)c3cnn(C)c3)cc21 (single isomer, unassigned) [Example 828]
> 50000	7790				C[C@@H]1OCc2c1c(N)nc1cnc(C(=O)N(Cc3ccc(C(F)(F)F)nn3)C3CCC3)cc21 (single isomer, unassigned) [Example 829]
2970	80				C[C@H]1OCc2c1c(N)nc1cnc(C(=O)N(Cc3ccc(C(F)(F)F)nn3)C3CCC3)cc21 (single isomer, unassigned) [Example 830]
31700	2570				CC(C)N(C(=O)c1ccc2nc(N)c3c(c2c1)COC3)[C@@H](C)c1ccc(C(F)(F)F)cn1 (single isomer, unassigned) [Example 831]
12600	454				CC(C)N(C(=O)c1ccc2nc(N)c3c(c2c1)COC3)[C@H](C)c1ccc(C(F)(F)F)cn1 (single isomer, unassigned) [Example 832]
